Data published in publication PMC12264554, “Application of preclinical absorption, distribution, metabolism, elimination in vitro techniques for the characterization and compound library optimization of novel antibiotic gallium salophen” (Drug Metabolism and Disposition, 2025).
Read-outs that look alike come from different tables or passages of the source.

Columns and labels:
[1] = Caco-2 permeability screening; assay type: in vitro ADME; conditions: for Papp A→B / Papp B→A / efflux ratio at 20 µM: Caco-2, 20 μM; for Papp A→B / Papp B→A: 30 and 60 min, average ± SEM; for Papp A→B: read-out: Papp apical to basolateral; for Papp B→A: read-out: Papp basolateral to apical; for Papp: Caco-2, ranked by Papp against control drugs, read-out: Permeability ranking; for efflux ratio at 20 µM: read-out: Efflux ratio B to A/A to B
Protocol: Caco-2 cells were received from American Type Culture Collection and certified mycoplasma free. Cells were seeded on transwell plates (CoStar, growth area 0.33 cm^2/well, polycarbonate membrane, 0.33 μm pore size) between passage 20 and 27 and then analyzed between 21 and 25 days after wells were seeded to ensure enterocyte-like differentiation. Before assessing permeability, cells were washed once with Hank’s Balanced Salt Solution buffer, pH 7.4, and then incubated at 37 °C for 30 minutes. Transepithelial electrical resistance (TEER) was measured after equilibration before the experiment using an epithelial volt-ohmmeter (EVOM, World Precision Instruments), and cells were used if TEER > 250 Ω × cm^2. Cells were dosed to measure permeability from basolateral and apical sides at a concentration of 20 μM of test compound and 50 μM of Lucifer yellow. Lucifer yellow was used as a “zero permeability” marker to monitor the integrity of cell barrier. Samples were taken at 0 and 60 minutes from the donor side, and samples were taken at 30 and 60 minutes from the receiver side; media was replenished after the 30-minute sample was taken from both chambers. A calibration curve was prepared by serial dilution using the dosing solution in a 1:5 dilution. […] Samples were prepared for LC-MS/MS analysis by taking 100 μL of sample, adding 1 μM internal standard (GaSal-4 or GaSal-5), and crashing with 400 μL of methanol. Samples were centrifuged at 3000 rpm at 4 °C for 30 minutes, 200 μL of supernatant was transferred to a new plate, and 100 μL of water was added to each sample. Samples were vortexed and analyzed by LC-MS/MS as described earlier. […] To preliminarily evaluate organic cation transporter 1 (OCT1) or P-glycoprotein (P-gp)-dependent transport, transport studies were conducted with and without a 1 μM “inhibitor cocktail” alongside GaSal. […] The Papp for basolateral to apical, Papp apical to basolateral, and efflux ratio were reported for each compound. In order to calculate Papp, the concentration in the sampled time point was determined from the calibration curve and then converted to μg based on the volume of the chamber (0.2 mL for apical, 1.0 mL for basolateral). […] The calculation of Papp was determined using eq. […] Data are presented as the average ± SEM for each compound analyzed as n = 3 on 2 different days with 2 different cell line passages, for n = 6 total. GaSal is n = 3 on 3 different cell line passages since this was used as a test compound for the inhibition cocktail experiments.

[2] = Experimental LogP by reverse-phase HPLC method; assay type: physicochemical; conditions: extrapolated log kw
From the text: LogP was experimentally determined using previously published reverse-phase high-performance liquid chromatography method, and this workflow was adapted using instrumentation described in the previous LC-MS/MS analysis section ([Coutinho et al, 2023]). Briefly, analogs were eluted using isocratic flow with an increasing percentage of organic solvent from 55% to 90% in increments of 5%. The change in the log of the retention factor, log k, was plotted against the fraction of organic solvent. This allowed for extrapolation to the y-intercept, which is when the fraction of organic in the system is zero, or log kw. The same workflow was applied to known compounds with a published logP value to establish a relationship between logP and log kw. This ratio was used to calculate the experimental logP from the log kw of the test compounds. The in silico prediction of logP values was obtained using an online calculator by Molinspiration Cheminformatics (molinspiration.com).

[3] = RBC/PL partitioning equilibrium in whole blood; conditions: for K2EDTA KRBC/PL: pooled K2EDTA whole blood; for K2EDTA KRBC/PL / Heparin KRBC/PL: LC-MS/MS (ICP-MS for Ga^3+); for Heparin KRBC/PL: pooled sodium heparin whole blood
Protocol: The mixtures were digested at 80 °C for 4 hours and further diluted to a concentration of 6% nitric acid. Gallium (Ga^71) in whole blood, PL, and RBC samples were quantified using an Agilent 7700x ICP-MS instrument (Agilent Technologies). Metal levels were detected using an Octopole Reaction System in He mode. Other ICP-MS parameters include an radio frequency power of 1500 W, on octupole radio frequency of 190 V, an octapole bias of –18 V, a helium gas flow of 4.3 mL/min, and an argon flow of 0.99 L/min. Samples were loaded through a 7700X peristaltic (with a speed of 0.1 rps) and a MicroMist nebulizer. A standard calibration curve was used to derive metal concentrations. The calibration standards from 0–250 ppb were prepared in 6% nitric acid using atomic absorption standards (Sigma). Data analysis and extraction were performed using Agilent’s MassHunter software version 5.1, specifically version D.01.01.
All LC-MS/MS grade solvents were purchased from ThermoFisher. Ammonium bicarbonate was purchased from Sigma Aldrich. Analysis was performed on a Waters I-Class ultra-performance liquid chromatography system connected with a Waters Xevo TQ-XS mass spectrometer. Ten millimolar ammonium bicarbonate, pH 9.4 was used for mobile phase A, and 100% methanol was used for mobile phase B. The column flow rate was set at 0.400 mL/min. Chromatographic separation was performed with a BEH C18 (2.1 × 50 mm, 1.7 μm) column (Waters). […] The total run time was 4 minutes. The column temperature was set to 60 °C, and the autosampler temperature was set to 15 °C. Washing parameters were 800 μL of weak needle wash (acetonitrile [ACN]:Water/50:50) and 1000 μL of strong needle wash (methanol:ACN:2-propanol:formic acid/30:30:40:0.5) after every injection. Transitions used to monitor all drugs in the study are shown in Supplemental Table 1.
Whole blood (either potassium EDTA [K2EDTA] or sodium heparin) was preincubated at 37 °C for 30 minutes before spiking with the analyte. GaSal-5 was made at a stock concentration of 100 μg/mL in water and then spiked at a high concentration (1 μg/mL) and low concentration (100 ng/mL) to determine whether equilibrium was concentration dependent. Samples were then aliquoted and stored in a water bath at 37 °C for 1, 2, 3, 4, and 8 hours or harvested immediately. PL was harvested from samples by centrifuging at 3000 rpm at 4 °C for 10 minutes. PL was transferred to a new tube and considered the PL fraction, whereas the rest of the matrix was considered the RBC fraction. Samples were then either analyzed by LC-MS/MS or ICP-MS. […] For selectivity lot analysis, whole blood from 3 male and 3 female donors were incubated for 2 hours and then analyzed with LC-MS/MS and ICP-MS at a single concentration of 1 μg/mL. Data are presented as average ± SEM, n = 3 per sample, per concentration. Significance was determined by using a paired t test for ICP-MS and LC-MS/MS data (the same sample, different method) or a 2-tailed Student’s t test for different anticoagulants.

HasA = HasA (Pseudomonas aeruginosa, UniProt G3XD33); assay: Kd determination by fluorescence quenching of apo-HasAp; conditions: read-out: HasA Kd; apo-HasAp 1 μM, 20 mM sodium phosphate pH 7.4, 25 °C, one-site binding fit
Protocol: Wild-type, full-length HasAp was prepared from freshly transformed Escherichia coli BL21(DE3) competent cells as previously described in 4 L of M9 media. Cell pellets were resuspended and lysed with an LM-20 microfluidizer at 18,000 psi. Lysate was clarified by centrifugation and applied to a Q-Sepharose column. HasAp was eluted over a gradient from 20 to 600 mM NaCl in 20 mM Tris-HCl (pH 7.5), and desired fractions determined by SDS-PAGE were pooled. Apo-HasAp was further purified on a Butyl Sepharose Fast Flow column equilibrated with 50 mM sodium phosphate buffer with 0.7 M ammonium sulfate (pH 7.0). Holo-HasAp and other proteins eluted within 2–3 bed volumes of 50 mM sodium phosphate containing 0.5 M ammonium sulfate. Apo-HasAp was then eluted with a linear gradient of sodium phosphate buffer (50–20 mM) containing ammonium sulfate (0.5–0 M). Fractions were analyzed again by SDS-PAGE, and the apo-HasAp was pooled, concentrated (Amicon stirred cell with Ultracel 10 kDa filter), and exchanged into 20 mM sodium phosphate buffer.
Binding affinities were determined using a BioTek Synergy H1 microplate reader in a black 96-well plate. Compounds were solvated in H2O in serial dilutions (100–0.39 μM). One micromolar solution of apo-HasAp 20 mM sodium phosphate buffer (pH 7.4, 25 °C) was titrated into the ligand of interest. Emission spectra were recorded (300–500 nm) after excitation at 280 nm. The decrease in maximum emission was plotted against the ligand concentration (accounting for dilution) and fit to one-site binding using GraphPad Prism v10.

[4] = calculated B/P, cited from earlier work

Sequence of HasA (G3XD33 entry or part of it): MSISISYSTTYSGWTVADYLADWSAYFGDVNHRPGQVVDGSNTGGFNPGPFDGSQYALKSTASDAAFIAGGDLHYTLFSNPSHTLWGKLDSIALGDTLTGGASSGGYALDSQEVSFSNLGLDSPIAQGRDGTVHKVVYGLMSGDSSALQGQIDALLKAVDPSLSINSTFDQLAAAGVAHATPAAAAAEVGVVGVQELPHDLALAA

Structure (SMILES): OCCCOc1ccc(/C=N/c2ccccc2/N=C/c2ccc(OCCCO)cc2O)c(O)c1.[Ga+3] [GaSal-11]
- Papp A→B [1]: < 0.01 ×10⁻⁶ cm/s
- Papp B→A [1]: 0.72 ± 0.12 ×10⁻⁶ cm/s
- Papp [1]: < 1.12 ×10⁻⁶ cm/s
- logP [2]: 4.04
- K2EDTA KRBC/PL ([3]; 0.1 μg/mL, 2 hours): 0.05 ± 0.03
- Heparin KRBC/PL ([3]; 0.1 μg/mL, 2 hours): 0.91 ± 0.19
- K2EDTA KRBC/PL ([3]; 1 μg/mL, 2 hours): 0.05 ± 0.02
- Heparin KRBC/PL ([3]; 1 μg/mL, 2 hours): 1.15 ± 0.19
- Kd (HasA): 570 ± 30 nM

Structure (SMILES): CC(=Nc1ccccc1/N=C/c1ccc(OCCCO)cc1O)c1ccccc1O.[Ga+3] [GaSal-12]
- Papp A→B [1]: 0.05 ± 0.01 ×10⁻⁶ cm/s
- Papp B→A [1]: 0.17 ± 0.06 ×10⁻⁶ cm/s
- Papp [1]: < 1.12 ×10⁻⁶ cm/s
- efflux ratio at 20 µM ([1]; human): 3.4
- logP [2]: 3.19
- K2EDTA KRBC/PL ([3]; 0.1 μg/mL, 2 hours): 0.11 ± 0.06
- Heparin KRBC/PL ([3]; 0.1 μg/mL, 2 hours): 0.86 ± 0.31
- K2EDTA KRBC/PL ([3]; 1 μg/mL, 2 hours): 0.13 ± 0.04
- Heparin KRBC/PL ([3]; 1 μg/mL, 2 hours): 1.48 ± 0.10
- Kd (HasA): 520 ± 10 nM

Structure (SMILES): CCCCOc1ccc(/C=N/c2ccccc2/N=C/c2ccc(OCCCC)cc2O)c(O)c1.[Ga+3] [GaSal-15]
- Papp A→B [1]: 0.79 ± 0.06 ×10⁻⁶ cm/s
- Papp B→A [1]: 7.1 ± 1.13 ×10⁻⁶ cm/s
- Papp [1]: < 1.12 ×10⁻⁶ cm/s
- efflux ratio at 20 µM ([1]; human): 9.02
- logP [2]: 5.99
- K2EDTA KRBC/PL ([3]; 0.1 μg/mL, 2 hours): 5.40 ± 0.13
- Heparin KRBC/PL ([3]; 0.1 μg/mL, 2 hours): 0.83 ± 0.01
- K2EDTA KRBC/PL ([3]; 1 μg/mL, 2 hours): 3.81 ± 0.97
- Heparin KRBC/PL ([3]; 1 μg/mL, 2 hours): 1.24 ± 0.03
- Kd (HasA): 1980 ± 170 nM

Structure (SMILES): O=[N+]([O-])[O-].O=[N+]([O-])[O-].O=[N+]([O-])[O-].[Ga+3] [Ga^3+, gallium nitrate, reference compound]
- hemolysis [3]: > 5%
- ICP-MS calculated KRBC/PL ([3]; 1 μg/mL, sodium heparin whole blood, 6 selectivity lots, 2 hours): 0.08 ± 0.01

Structure (SMILES): [Pb] [Lead]
- KRBC/PL (B/P ratio) ([4]; ref (Cao et al., 2023)): 1.13

Structure (SMILES): CN(C)C(=O)C(CCN1CCC(O)(c2ccc(Cl)cc2)CC1)(c1ccccc1)c1ccccc1 [Loperamide, reference compound]
- efflux ratio at 60 min, 20 μM ([1]; human, Caco-2, pH 7.4, known drug standards, read-out: Efflux Ratio B to A/ A to B): 4.22
- Papp A→B at 60 min, 20 μM ([1]; human, Caco-2, pH 7.4, known drug standards, read-out: Papp Apical to Basolateral): 3.51 ± 0.04 ×10⁻⁶ cm/s
- Papp B→A at 60 min, 20 μM ([1]; human, Caco-2, pH 7.4, known drug standards, read-out: Papp Basolateral to Apical): 14.8 ± 2.12 ×10⁻⁶ cm/s
- Papp at 60 min, 20 μM ([1]; human, Caco-2, pH 7.4, known drug standards, read-out: Permeability Ranking): 3.51 to 5.33 ×10⁻⁶ cm/s

Structure (SMILES): [Mn+2] [Manganese]
- KRBC/PL (B/P ratio) ([4]; ref (Smith et al., 2007)): 0.2

Structure (SMILES): [Ni] [Nickel]
- KRBC/PL (B/P ratio) ([4]; ref (Cao et al., 2023)): 0.50

Structure (SMILES): [Se] [Selenium]
- KRBC/PL (B/P ratio) ([4]; ref (Cao et al., 2023)): 1.34

Structure (SMILES): [Sr+2] [Strontium]
- KRBC/PL (B/P ratio) ([4]; ref (Cao et al., 2023)): 0.42
